According to patent US6509027B2, “Injectable pharmaceutical composition comprising coated particles of camptothecin” (priority 2001, dated 2003):

How the values were obtained:
[1] = system: A375 human melanoma xenografts; experiment: A375 human melanoma xenograft study 1, tumor growth delay method; format: in vivo, athymic nude mice
From the text: The following study evaluates two intravenous formulations according to the present invention against human tumor xenografts in athymic nude mice. The study used the A375 human melanoma xenograft model to compare the in vivo antitumor efficacy of I.V. 9-nitro-camptothecin, in vehicles containing IDD-P which provides a particulate suspension of 9-nitro-camptothecin, and IDD-D which provides a droplet suspension of 9-nitro-camptothecin, to the efficacy of oral 9-nitro-camptothecin and intraperitoneal CAMPTOSAR®, HYCAMTIN®, and DTIC®. Examples 1 and 2 describe the compositions of IDD-P (FIG. 1; formulation 1-F) and IDD-D respectively.
In order to assess antitumor efficacy, groups of athymic nude mice (n=10) bearing ˜72-mg A375 melanomas were treated intravenously on the 5/2/5 schedule with 9-nitro-camptothecin in IDD-P at 3.0 mg/kg or 1.5 mg/kg and 9-nitro-camptothecin in IDD-D at 2.0 mg/kg or 1.0 mg/kg.
Female nude mice were 16 weeks of age (NCR-nuJBr; Taconic Farms) for the A375 study. The mice were fed ad libitum water (reverse osmosis, 1 ppm Cl) and autoclaved Prolab NIH-31 M/5% Rodent Diet consisting of 18% protein, 5% fat, 6% fiber, and 8% ash. Mice were housed in static microisolators on a 12-hour light cycle at 21-22° C. (70-72° F.) and 40%-60% humidity. The animal care and use program is AAALAC International accredited and specifically follows and complies with the recommendation of the National Research Council's Guide for the Care and Use of Laboratory Animals.
An A375 melanoma fragment (1 mm 3) was implanted subcutaneously in the flank of each nude mouse. When the tumors reached the 60-112 mg size range, the mice were sorted into treatment groups (on Day 1) such that the group mean tumor sizes ranged from 71.3 mg-72.5 mg. Estimated tumor weight was calculated using the formula: [formula]
IDD-P with a mean particle size of […] and IDD-D with a mean particle size of […] were prepared for the study by RTP Pharma Inc. For this, the 9-nitro-camptothecin suspensions were diluted with water and vehicle to provide doses of 3 mg/kg and 1.5 mg/kg in 33% IDD-P, and doses of 2 mg/kg and 1 mg/kg in 100% and 50% IDD-D, respectively. After dilution, 9-nitro-camptothecin suspensions were mixed thoroughly by gentle agitation and stored at 2-8° C. For its oral formulation, 9-nitro-camptothecin was dissolved in DMA (N,N-dimethylacetamide, SIGMA) and diluted with D5W to yield a final DMA concentration of 3%. CAMPTOSAR®, DTIC®, and HYCAMTIN® were obtained as the marketed drugs and solutions were prepared fresh on the day of dosing. […]
The tumor growth delay (TGD) method was used to assess efficacy. Tumor dimensions were measured twice weekly until the experiment was terminated on Day 62. […]

[2] = Evaluation of toxicity in the A375 melanoma study; format: in vivo, athymic nude mice; conditions: Group 7: 150 mg/kg I.P., qd×5
Experimental: Volumes of 0.20 ml per 20-g mouse, body-weight adjusted, were administered once daily. Tumor-bearing athymic nude mice were matched on Day 1 into 13 groups of ten animals and drug administration was initiated. The I.V. formulations of 9-nitro-camptothecin were given once daily on a 5/2/5 schedule as shown in the protocol summary shown in FIG. 4. Oral 9-nitro-camptothecin doses were given on a q3d×4 schedule (Days 1, 4, 8, and 11). Three reference drugs were administered I.P.: CAMPTOSAR® was given in three doses at weekly intervals (qwk×3); HYCAMTIN® was given in four doses at four-day intervals (q4d×4); and DTIC® was given in five consecutive daily doses (qd×5). The tumor growth control group for these reference treatments received no treatment (Group 1). The 9-nitro-camptothecin vehicle: 33.3% IDD-P, 100% IDD-D, and 3% DMA, was administered to vehicle control Groups 2-4, respectively.
The maximum tolerated dose (MTD), as defined by the NCI, is the highest dose at which no more than 10% of the animals die and the group mean body-weight loss is no more than 20%. Body weights were measured daily for four or five days and then twice weekly thereafter until the experiments were terminated on Day 62 of the study. […] Because mice are not tagged for MTD studies, only the mean group body weights recorded in the appended raw data are significant in those studies.

[3] = i.v., clinical trials; cited from earlier work
[4] = molecular target: human serum albumin (HSA) (Homo sapiens, UniProt P02768); conditions: PBS at pH 7.4; cited from earlier work
human serum albumin (HSA), sequence (P02768 25-609): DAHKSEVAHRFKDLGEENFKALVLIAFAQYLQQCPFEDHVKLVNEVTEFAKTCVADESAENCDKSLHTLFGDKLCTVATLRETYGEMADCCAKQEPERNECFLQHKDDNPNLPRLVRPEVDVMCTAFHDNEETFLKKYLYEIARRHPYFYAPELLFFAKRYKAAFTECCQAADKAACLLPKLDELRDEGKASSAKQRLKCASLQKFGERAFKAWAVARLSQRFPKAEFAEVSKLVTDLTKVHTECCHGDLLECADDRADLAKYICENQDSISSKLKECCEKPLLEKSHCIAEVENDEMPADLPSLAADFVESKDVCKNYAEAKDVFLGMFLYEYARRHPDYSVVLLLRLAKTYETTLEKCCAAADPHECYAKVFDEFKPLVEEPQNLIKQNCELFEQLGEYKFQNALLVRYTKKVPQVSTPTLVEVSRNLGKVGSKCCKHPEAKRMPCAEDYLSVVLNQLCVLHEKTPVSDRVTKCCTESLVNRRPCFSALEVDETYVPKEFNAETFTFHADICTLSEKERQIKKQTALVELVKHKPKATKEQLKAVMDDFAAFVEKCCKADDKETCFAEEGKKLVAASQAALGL

CCc1c2c(nc3ccc(OC(=O)N4CCC(N5CCCCC5)CC4)cc13)-c1cc3c(c(=O)n1C2)COC(=O)[C@]3(O)CC [CAMPTOSAR®, irinotecan]
62-day survivors (of 10 mice) ([1]; Group 5: 100 mg/kg I.P., qwk×3): one
complete regression (CR) responses on Day 62 ([1]; Group 5: 100 mg/kg I.P., qwk×3, 100 mg/kg): single and one

CN(C)/N=N/c1[nH]cnc1C(N)=O [DTIC®, dacarbazine]
toxic deaths (of 10 mice) [2]: one and One

CC[C@@]1(O)C(=O)OCc2c1cc1n(c2=O)Cc2cc3c(CN(C)C)c(O)ccc3nc2-1 [HYCAMTIN®, topotecan]
62-day survivors (of 10 mice) ([1]; Group 6: 10 mg/kg I.P., q4d×4): one
complete regression (CR) responses on Day 62 ([1]; Group 6: 10 mg/kg I.P., q4d×4, 10 mg/kg): single and one

CC[C@@](O)(C(=O)[O-])c1cc2n(c(=O)c1CO)Cc1cc3ccccc3nc1-2.[Na+] [Sodium camptothecin]
clinical activity [3]: antitumor activity
clinical side effects [3]: unpredictable side effects such as myelosuppression and hemorrhagic cystitis

CC[C@@]1(O)C(=O)OCc2c1cc1n(c2=O)Cc2cc3ccccc3nc2-1 [camptothecin, 20(S)-camptothecin]
affinity of HSA for the carboxylate form relative to the α-hydroxy lactone form [4]: 150 fold
